Data taken from the supplement of paper PMC13207355.
Counter-ions that a name gives are not always drawn.

How the values were obtained:
Conditions in all cases: exposure time: 72 h
E13 [1] = patient-derived glioblastoma stem cells of classical subtype; test: surviving fraction (nuclei count normalised to DMSO); higher = more cells surviving (less toxic)
E21 [2] = patient-derived glioblastoma stem cells of mesenchymal subtype; test: as above
E28 [3] = patient-derived glioblastoma stem cells of classical subtype; test: as above
E31 [4] = patient-derived glioblastoma stem cells of proneural subtype; test: as above
E34 [5] = patient-derived glioblastoma stem cells of proneural subtype; test: as above
E57 [6] = patient-derived glioblastoma stem cells of mesenchymal subtype; test: as above
FT3469 [7] = normal neural stem cell line; test: as above
E13 [8] = test: phenotypic distance (Euclidean, principal components) from DMSO controls (arbitrary units); higher = stronger morphological change
E21 [9] = test: as above
E28 [10] = test: as above
E31 [11] = test: as above
E34 [12] = test: as above
E57 [13] = test: as above
FT3469 [14] = test: as above
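For phenotypic distance (Euclidean, principal components) from DMSO controls in this document: cell Painting imaging in 384-well plates, CellProfiler features reduced to at least 20 principal components, Euclidean distance versus same-plate DMSO vehicle wells (0.1% v/v), median over six images per well.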
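For surviving fraction (nuclei count normalised to DMSO) in this document: nuclei counted by high-content imaging of Hoechst-stained cells in laminin-coated 384-well plates, relative to 0.1% DMSO vehicle wells, with staurosporine as cell-death control.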

COC(=O)Nc1nc2cc(C(=O)c3ccc(F)cc3)ccc2[nH]1 [Flubendazol]
Conditions | phenotypic distance | surviving fraction
E13 [1], 4.1 nM | – | 0.992
E13 [1], 12.3 nM | – | 1.12
E13 [1], 37 nM | – | 1.11
E13 [1], 111.1 nM | – | 0.943
E13 [1], 333.3 nM | – | 0.471
E13 [1], 1000 nM | – | 0.261
E13 [1], 3000 nM | – | 0.234
E13 [8], 4.1 nM | 0.372 | –
E13 [8], 12.3 nM | 0.737 | –
E13 [8], 37 nM | 0.86 | –
E13 [8], 111.1 nM | 1.59 | –
E13 [8], 333.3 nM | 3.72 | –
E13 [8], 1000 nM | 6.11 | –
E13 [8], 3000 nM | 6.68 | –
E21 [2], 4.1 nM | – | 1.09
E21 [2], 12.3 nM | – | 0.929
E21 [2], 37 nM | – | 0.954
E21 [2], 111.1 nM | – | 0.885
E21 [2], 333.3 nM | – | 0.777
E21 [2], 1000 nM | – | 0.161
E21 [2], 3000 nM | – | 0.137
E21 [9], 4.1 nM | 0.658 | –
E21 [9], 12.3 nM | 1.03 | –
E21 [9], 37 nM | 0.833 | –
E21 [9], 111.1 nM | 1.63 | –
E21 [9], 333.3 nM | 2.94 | –
E21 [9], 1000 nM | 7.4 | –
E21 [9], 3000 nM | 7.27 | –
E28 [3], 4.1 nM | – | 1.07
E28 [3], 12.3 nM | – | 1.09
E28 [3], 37 nM | – | 1.02
E28 [3], 111.1 nM | – | 1.02
E28 [3], 333.3 nM | – | 0.67
E28 [3], 1000 nM | – | 0.361
E28 [3], 3000 nM | – | 0.234
E28 [10], 4.1 nM | 0.523 | –
E28 [10], 12.3 nM | 0.55 | –
E28 [10], 37 nM | 0.574 | –
E28 [10], 111.1 nM | 1.08 | –
E28 [10], 333.3 nM | 1.98 | –
E28 [10], 1000 nM | 3.45 | –
E28 [10], 3000 nM | 3.81 | –
E31 [4], 4.1 nM | – | 0.887
E31 [4], 12.3 nM | – | 0.95
E31 [4], 37 nM | – | 0.807
E31 [4], 111.1 nM | – | 0.615
E31 [4], 333.3 nM | – | 0.329
E31 [4], 1000 nM | – | 0.118
E31 [4], 3000 nM | – | 0.0708
E31 [11], 4.1 nM | 0.507 | –
E31 [11], 12.3 nM | 0.548 | –
E31 [11], 37 nM | 0.79 | –
E31 [11], 111.1 nM | 1.36 | –
E31 [11], 333.3 nM | 3.16 | –
E31 [11], 1000 nM | 5.22 | –
E31 [11], 3000 nM | 7.77 | –
E34 [5], 4.1 nM | – | 1.14
E34 [5], 12.3 nM | – | 0.942
E34 [5], 37 nM | – | 0.985
E34 [5], 111.1 nM | – | 0.904
E34 [5], 333.3 nM | – | 0.661
E34 [5], 1000 nM | – | 0.473
E34 [5], 3000 nM | – | 0.324
E34 [12], 4.1 nM | 0.541 | –
E34 [12], 12.3 nM | 0.863 | –
E34 [12], 37 nM | 0.46 | –
E34 [12], 111.1 nM | 1.21 | –
E34 [12], 333.3 nM | 1.98 | –
E34 [12], 1000 nM | 3.35 | –
E34 [12], 3000 nM | 4.79 | –
E57 [6], 4.1 nM | – | 0.998
E57 [6], 12.3 nM | – | 0.941
E57 [6], 37 nM | – | 1.06
E57 [6], 111.1 nM | – | 0.996
E57 [6], 333.3 nM | – | 0.739
E57 [6], 1000 nM | – | 0.134
E57 [6], 3000 nM | – | 0.0682
E57 [13], 4.1 nM | 0.67 | –
E57 [13], 12.3 nM | 0.423 | –
E57 [13], 37 nM | 0.428 | –
E57 [13], 111.1 nM | 1.31 | –
E57 [13], 333.3 nM | 2.68 | –
E57 [13], 1000 nM | 5.07 | –
E57 [13], 3000 nM | 4.95 | –
FT3469 [7], 4.1 nM | – | 1.16
FT3469 [7], 12.3 nM | – | 0.827
FT3469 [7], 37 nM | – | 0.997
FT3469 [7], 111.1 nM | – | 0.747
FT3469 [7], 333.3 nM | – | 0.644
FT3469 [7], 1000 nM | – | 0.524
FT3469 [7], 3000 nM | – | 0.564
FT3469 [14], 4.1 nM | 0.499 | –
FT3469 [14], 12.3 nM | 0.843 | –
FT3469 [14], 37 nM | 0.655 | –
FT3469 [14], 111.1 nM | 0.943 | –
FT3469 [14], 333.3 nM | 2.08 | –
FT3469 [14], 1000 nM | 3.42 | –
FT3469 [14], 3000 nM | 3.26 | –

OCCN1CCN(CCCN2c3ccccc3Sc3ccc(C(F)(F)F)cc32)CC1 [Fluphenazine dihydrochloride]
Conditions | phenotypic distance | surviving fraction
E13 [1], 4.1 nM | – | 0.959
E13 [1], 12.3 nM | – | 1.02
E13 [1], 37 nM | – | 1
E13 [1], 111.1 nM | – | 1
E13 [1], 333.3 nM | – | 0.966
E13 [1], 1000 nM | – | 0.816
E13 [1], 3000 nM | – | 0.804
E13 [8], 4.1 nM | 0.431 | –
E13 [8], 12.3 nM | 0.337 | –
E13 [8], 37 nM | 0.907 | –
E13 [8], 111.1 nM | 0.69 | –
E13 [8], 333.3 nM | 1.57 | –
E13 [8], 1000 nM | 1.8 | –
E13 [8], 3000 nM | 2.01 | –
E21 [2], 4.1 nM | – | 0.932
E21 [2], 12.3 nM | – | 0.986
E21 [2], 37 nM | – | 1.08
E21 [2], 111.1 nM | – | 0.96
E21 [2], 333.3 nM | – | 1.01
E21 [2], 1000 nM | – | 0.989
E21 [2], 3000 nM | – | 0.938
E21 [9], 4.1 nM | 0.339 | –
E21 [9], 12.3 nM | 0.421 | –
E21 [9], 37 nM | 0.601 | –
E21 [9], 111.1 nM | 0.795 | –
E21 [9], 333.3 nM | 0.745 | –
E21 [9], 1000 nM | 0.728 | –
E21 [9], 3000 nM | 1.26 | –
E28 [3], 4.1 nM | – | 1.13
E28 [3], 12.3 nM | – | 0.846
E28 [3], 37 nM | – | 1.1
E28 [3], 111.1 nM | – | 1.04
E28 [3], 333.3 nM | – | 0.899
E28 [3], 1000 nM | – | 0.923
E28 [3], 3000 nM | – | 1.05
E28 [10], 4.1 nM | 0.832 | –
E28 [10], 12.3 nM | 0.622 | –
E28 [10], 37 nM | 0.706 | –
E28 [10], 111.1 nM | 0.624 | –
E28 [10], 333.3 nM | 0.662 | –
E28 [10], 1000 nM | 0.755 | –
E28 [10], 3000 nM | 0.877 | –
E31 [4], 4.1 nM | – | 1.01
E31 [4], 12.3 nM | – | 1.18
E31 [4], 37 nM | – | 1.02
E31 [4], 111.1 nM | – | 0.932
E31 [4], 333.3 nM | – | 1.09
E31 [4], 1000 nM | – | 1.22
E31 [4], 3000 nM | – | 1.13
E31 [11], 4.1 nM | 0.66 | –
E31 [11], 12.3 nM | 0.671 | –
E31 [11], 37 nM | 0.803 | –
E31 [11], 111.1 nM | 1.17 | –
E31 [11], 333.3 nM | 1.95 | –
E31 [11], 1000 nM | 2.4 | –
E31 [11], 3000 nM | 2.16 | –
E34 [5], 4.1 nM | – | 0.901
E34 [5], 12.3 nM | – | 0.986
E34 [5], 37 nM | – | 0.911
E34 [5], 111.1 nM | – | 0.993
E34 [5], 333.3 nM | – | 1.2
E34 [5], 1000 nM | – | 1.05
E34 [5], 3000 nM | – | 1.06
E34 [12], 4.1 nM | 0.947 | –
E34 [12], 12.3 nM | 0.375 | –
E34 [12], 37 nM | 0.734 | –
E34 [12], 111.1 nM | 0.93 | –
E34 [12], 333.3 nM | 1.15 | –
E34 [12], 1000 nM | 0.764 | –
E34 [12], 3000 nM | 1.17 | –
E57 [6], 4.1 nM | – | 1.02
E57 [6], 12.3 nM | – | 1.03
E57 [6], 37 nM | – | 1.03
E57 [6], 111.1 nM | – | 1
E57 [6], 333.3 nM | – | 1.12
E57 [6], 1000 nM | – | 1.02
E57 [6], 3000 nM | – | 1.15
E57 [13], 4.1 nM | 0.619 | –
E57 [13], 12.3 nM | 0.504 | –
E57 [13], 37 nM | 0.711 | –
E57 [13], 111.1 nM | 0.787 | –
E57 [13], 333.3 nM | 0.901 | –
E57 [13], 1000 nM | 0.778 | –
E57 [13], 3000 nM | 1.6 | –
FT3469 [7], 4.1 nM | – | 0.838
FT3469 [7], 12.3 nM | – | 1.09
FT3469 [7], 37 nM | – | 0.931
FT3469 [7], 111.1 nM | – | 1
FT3469 [7], 333.3 nM | – | 1.04
FT3469 [7], 1000 nM | – | 0.894
FT3469 [7], 3000 nM | – | 0.84
FT3469 [14], 4.1 nM | 0.785 | –
FT3469 [14], 12.3 nM | 0.668 | –
FT3469 [14], 37 nM | 0.632 | –
FT3469 [14], 111.1 nM | 0.808 | –
FT3469 [14], 333.3 nM | 0.87 | –
FT3469 [14], 1000 nM | 1.41 | –
FT3469 [14], 3000 nM | 1.36 | –
